Data on one molecule can be found in patent US4335211A, “Process for producing optically active cephalosporin analogs” (Kyowa Hakko Kogyo Co., Ltd., priority 1979, dated 1982).

The nature of this assay: antimicrobial activity (statement in words). The assay is classed as cell-based. The conditions noted are these: less polar isomer (A) versus more polar isomer (B).

`N[C@@H](C(=O)N[C@@H]1C(=O)N2C(C(=O)O)=C(Cl)CC[C@H]12)c1ccccc1` [Example 1, (6R, 7S) 7-(R)-phenylglycinamido-3-chloro-1-azabicyclo[4,2,0]oct-2-en-8-on-2-carboxylic acid]: the antimicrobial activity entry was “greater antimicrobial activity”.
